These results are taken from EP1897937A1, “Method of culturing NPCs” (NeuroProgen GmbH Leipzig, priority 2006, dated 2008).

Assay [1] relates to hmNPCs. The assay is described as follows: Protein content of cell extracts (Bradford method). To be noted: Homo sapiens, 336 h, 2 weeks of expansion, read-out: protein yield compared to untreated samples. Format: cell-based. As for the experimental part:
(§1) To determine long-term proliferation, hmNPCs were plated and expanded for 2 passages with or without addition of various agents (see below) to the custom expansion media containing the growth factors EGF and FGF2. Different fetal midbrain tissues were included in this study. At the end of the proliferation period, differentiation of hmNPCs was induced via replacement of expansion media with mitogen-free media containing 1% FCS, 5 µM forskoline (Sigma-Aldrich Chemie GmbH Munich, Germany), and 100 pg/ml IL-1β (Sigma). The differentiation and expansion media were supplemented with different drugs as appropriate. Prior to immunocytochemistry or protein extraction, hmNPCs were allowed to differentiate for 1 week. To determine short-term proliferation via Ki67 immunostaining, the cells were seeded into 24-well plates (70,000 cells/well) and left overnight to rest. P2 receptor agonists (ATP, UTP, ATP + UTP, ADP, ADPβS) were supplied daily for 5 consecutive days. Ki67/nestin double-positive cells were counted in 8 randomly selected fields of nucleotide-treated or untreated samples. For the assessment of MAPK phosphorylation the cells were kept free of mitogens for 2 d prior to addition of the MEK-inhibitor in expansion media. In addition, the MEK-inhibitor was added during the differentiation period 15 min before UTP administration.
In order to prepare protein extracts, hmNPCs were collected, washed with ice-cold PBS and lysed in buffer [10 mM HEPES-KOH (pH 7.9), 10 mM KCI, 1.5 mM MgCl2, 0.1% NP-40], supplemented with protease inhibitor cocktail (Roche). After a brief centrifugation at 4°C/10 000×g, protein concentrations and protein yield from extracts were determined using the Bradford method (Bio-Rad, Hercules, CA, USA). To preserve the phosphorylation state of proteins, extracts for the MAPK experiment were obtained using the PhosphoSafe™ extraction reagent containing phophatase inhibitors (Novagen). […] The chemiluminescence was quantified using the AIDA, two-dimensional densitometry software (Raytest lsotopenmeb, Straubenhardt, Germany). […]

Assay [2] has as its system hmNPCs. The assay is described as follows: Long-term proliferation: number of living cells (hemocytometer, trypan blue exclusion). Type of assay: cell-based, human. On the procedure:
as §1
(§2) UTP, UDP, ATP, ADP, ADPβS and suramin were purchased from Sigma (Sigma-Aldrich Chemie GmbH Munich, Germany). UTP and UDP were applied at different concentrations (1 µM, 10 µM, 100 µM), ATP at 100 µM, ADP at 100 µM, and ADPβS at100 µM. During expansion of the cells, the nucleotides were renewed once a week with every media change, unless otherwise stated. They were applied once at the beginning of the differentiation period. The P2 receptor antagonist suramin (10 µM) was added to expansion media 30 min prior to addition of UTP (100 µM). The stock solution of the MEK1/2 inhibitor U0126 (Promega Corporation, Mannheim, Germany) was prepared in dimethyl sulfoxide (DMSO) at a concentration of 10 mM. The stock solution was then diluted in 0.1 M PBS to obtain a concentration of 1 mM. MEK inhibitor (final concentration 10 µM) was added to mitogen-free expansion media, 15 min before UTP treatment (1 µM) of hmNPCs.
Cell counting of control (untreated) and treated hmNPCs was performed using a hemocytometer. Adherent cells were collected by detachment with accutase™ (PAA Laboratories, Pasching, Austria) for 10 min at 37°C. […] The number of total and trypan blue-positive cells was then determined by counting at least 300 cells per sample in a hemocytometer.

In the next assay the test system is ERK1/2. The assay is described as follows: ERK1/2 (MAPK) phosphorylation by Western blot. Type of assay: cell-based, human. On the procedure:
as §1, §2
In order to prepare protein extracts, hmNPCs were collected, washed with ice-cold PBS and lysed in buffer [10 mM HEPES-KOH (pH 7.9), 10 mM KCI, 1.5 mM MgCl2, 0.1% NP-40], supplemented with protease inhibitor cocktail (Roche). After a brief centrifugation at 4°C/10 000×g, protein concentrations and protein yield from extracts were determined using the Bradford method (Bio-Rad, Hercules, CA, USA). To preserve the phosphorylation state of proteins, extracts for the MAPK experiment were obtained using the PhosphoSafe™ extraction reagent containing phophatase inhibitors (Novagen). […] Membranes were blocked with 5% (wt/vol) nonfat dry milk in PBS-T (PBS, 0.1% (vol/vol) Tween 20) for 2 h at room temperature and subsequently incubated with the desired primary antibody (diluted in PBS containing 5% non-fat milk and 0.1% Tween 20) overnight at 4 °C with gentle agitation. The membrane was incubated with horseradish peroxidase-coupled secondary antibody for 1 h at room temperature. […] The chemiluminescence was quantified using the AIDA, two-dimensional densitometry software (Raytest lsotopenmeb, Straubenhardt, Germany).

In the case of `O=c1ccn([C@@H]2O[C@H](COP(=O)(O)OP(=O)(O)OP(=O)(O)O)[C@@H](O)[C@H]2O)c(=O)[nH]1` [UTP, uridine 5'-triphosphate], the activity at 1 µM with hmNPCs [1] (1 µM) amounted to 165%; in the assay with hmNPCs [2] (Homo sapiens, 336 h, 1 µM, 2 passages (approximately 2 weeks of expansion), control 100 ± 5%, read-out: number of living cells as compared to controls), 152 ± 6%. The activity at 10 µM with hmNPCs [1] (10 µM) amounted to 125%. The activity at 100 µM in the assay with hmNPCs [1] (100 µM) was 113%. The “number of living cells” value with hmNPCs [2] (100 µM each, 2 weeks in expansion media, on coapplication ADP 30 min before UTP, 20160 min) amounted to 110 ± 6%. The “performance of proliferating hmNPCs grown without mitogens” value with hmNPCs [2] (without EGF and FGF2, 1 µM once in 5 days) is given as “performed slightly better”. For the same compound, in the assay with ERK1/2 (1 µM, 30 min, expansion media, mitogen-free), the “ERK1/2 (MAPK) phosphorylation” value was “phosphorylated”. Further, in the assay with ERK1/2 (100 µM, one week of differentiation), the “expression of phosphorylated ERK1/2” value is on record as “increased”.
